We go through two compounds from US20040002482A1, “Androgen pharmaceutical composition and method for treating depression” (priority 2000, published 2004).

Like-named read-outs stand apart in the source and are kept apart here.

Data set [1] relates to depression. Particulars: cited from earlier work.
The subject of data set [2] is impaired sexual function. The settings on record: cited from earlier work; for serum free testosterone concentration: mean ± SD.
For data set [3] the following is noted: cited from earlier work.
Data set [4] deals with major depressive disorder. Put plainly: Eight-week randomized placebo-controlled depression trial of testosterone gel: HAM-D, CGI, BDI. The class given is in vivo, treatment-refractory depressed men. As for the experimental part: Men age 30-65 years, presently taking an adequate dose of antidepressant medication (as defined by the manufacturer's published product information) for at least the last four weeks, but still complaining of depressive symptoms sufficient to meet DSM-IV criteria for current major depressive disorder. Subjects were initially screened. […] Subjects were then administered the depression module the Structured Clinical Interview for DSM-IV (SCID) to confirm the diagnosis of current major depressive disorder. Subjects were next administered the American Urological Association (AUA) Symptom Index for benign prostatic hyperplasia (B PH), subjects scoring higher than 14 on this index were excluded. Blood was then collected for total testosterone and PSA levels.
(§1) Next, the subjects were administered: 1) basic demographic questions; 2) the remainder of the SCID; 3) questions regarding history of previous antidepressant drug treatment; 4) the HAM-D; 5) the BDI; 6) the Clinical Global Impression Scale (CGI); 7) medical history questions; 8) physical examination, including vital signs, height, weight, and digital rectal examination of the prostate; 9) laboratory tests for standard chemistries, hematology, urinalysis, and HIV serology; 10) electrocardiogram (EKG); and 11) determination of body fat with calipers, together with calculation of fat-free mass index (FFMI), a measure of muscularity previously developed in our laboratory.
Qualifying subjects were then started on a one-week single-blind placebo washout with placebo gel. All subjects were asked to continue taking their existing antidepressant medications, together with any other medications that they were prescribed, at their present dose throughout the study.
Baseline (Week 0): Subjects were assessed for scores on the HAM-D, BDI, and CGI-Severity of Illness; adverse events; and vital signs. Results from the laboratory tests drawn at screen and from EKG readings were also reviewed. […] Drug and placebo were supplied in identical-appearing packets that contained either 2.5 g of AndroGel or a placebo gel.
Week 1: Subjects were assessed for scores on the HAM-D, BDI, and CGI (both Severity of Illness and Improvement as compared to Baseline); adverse events; and vital signs. Subjects provided blood for a total testosterone level, drawn at least four hours after the morning application of the gel.
(§2) Weeks 2, 4, 6, and 8: Subjects were assessed at weeks 2, 4,6 and 8 for HAM-D, BDI, CGI, adverse events, and vital signs. Week 8, subjects received an additional determination of PSA and measurement of weight and body fat. The blind was then broken and the correct identity of treatment assignment determined.
Statistical Analysis: Baseline characteristics of each group were compared using Fisher's exact test for categorical variables and the […] for continuous variables. Two populations of patients were defined: (1) an intent-to-treat group of patients with at least one available efficacy measure, and (2) a completers group, defined as patients who completed the 8-week treatment period.
The primary protocol-defined analysis of efficacy was a repeated measures random regression analysis comparing the rate of change of scores on the HAM-D, BDI, and CGI-severity during the treatment period between groups, using methods described by Diggle et al. and Gibbons et al. A model was used for the mean of the outcome variable that included terms for treatment, time, and treatment-by-time interaction. Time as a continuous variable was modeled, with weeks ranging from 0 (Baseline) to 8 (after randomization). The measure of effect was the treatment-by-time interaction (or the difference in the rate of change per unit of time, or the difference in slope with respect to time) of the efficacy measure. […]

Data set [5] relates to body fat and muscle mass. The experiment in a line: Depression trial: percent body fat and fat-free mass index (FFMI). It is filed as in vivo, treatment-refractory depressed men. Particulars: study completers; mean (SD); not significant vs placebo. The method, then: as §1, §2
For laboratory measures, including body fat and FFMI, the mean difference between endpoint and baseline measures were used, and then compared the treatment groups using the t-test. The correlation coefficients were calculated by using rank-transformed data (Spearman rank correlation). All statistical tests were two-sided with alpha=0.05.

In data set [6] the test system is body weight. The settings on record: patch delivering 150 ug/day; 12 weeks; cited from earlier work.
Where [7] appears, read: 10 grams of 1% gel daily added to existing antidepressant, 8 weeks.
The mark [8] stands for this setting: Completers, Week 8 as endpoint, N = 10.
[9] abbreviates: Intent to Treat, last observation carried forward, N = 11.

`CCCCCCC(=O)O[C@H]1CC[C@H]2[C@@H]3CCC4=CC(=O)CC[C@]4(C)[C@H]3CC[C@]12C` [testosterone enanthate]: the “mean HAM-D score” value in data set [1] (eight weeks, 400 mg every two weeks i.m. with SSRI, 19.2 at baseline, five men) is 4.0. The “subjects responding (50% or greater reduction in HAM-D)” value in data set [1] (randomized placebo-controlled trial, six weeks) is “About 40%”. The “HAM-D or BDI difference vs placebo” value in data set [1] (randomized placebo-controlled trial, six weeks, testosterone alone) was “no significant difference between testosterone and placebo”.
Broadly, the half-life is the time in which the quantity being followed falls by half. As to `C[C@]12CC[C@H]3[C@@H](CCC4=CC(=O)CC[C@@]43C)[C@@H]1CC[C@@H]2O` [testosterone], in data set [2] (160 μg per day (so in the source) transdermally), the “serum free testosterone concentration” value was 3.9 ± 2.4 pg/mL. Besides, the “serum free testosterone concentration” value in data set [2] (300 μg per day transdermally) was 4.9 ± 4.8 pg/mL. In addition, the “percentages of women with sexual fantasies, masturbation or intercourse at least once a week, increase from base line” value in data set [2] (300 μg per day) is recorded as “two to three times”. Moreover, the “bound to protein in the blood” value in data set [3] (in vivo) was 98%. Besides, the half-life in data set [3] (reported in the literature) was 10 to 100 min. For the same compound, in data set [4] (setting [7]), the “CGI-severity scores compared with placebo” value is on record as “significantly greater rates of decrease” and the “HAM-D scores compared with placebo” value is on record as “significantly greater rate of decrease”. Also, in data set [4] (setting [8]), the “BDI, Total Score: mean change from baseline to endpoint” value is reported as −6.8; the “CGI-Improvement (mean)” value came out at 2.9; the “CGI-Severity: mean change from baseline to endpoint” value is −1.2; the “HAM-D, Affective Subscale: mean change from baseline to endpoint” value was −2.7. In data set [4] (setting [8]), the “HAM-D, Total score: mean change from baseline to endpoint” value is recorded as −8.8 and the “HAM-D, Vegetative Subscale: mean change from baseline to endpoint” value is recorded as −3.5. Besides, in data set [4] (setting [9]), the “BDI, Total Score: mean change from baseline to endpoint” value is recorded as −5.5; the “CGI-Improvement (mean)” value stood at 3.09; the “CGI-Severity: mean change from baseline to endpoint” value was −0.9; the “HAM-D, Affective Subscale: mean change from baseline to endpoint” value is given as −2.1. Moreover, in data set [4] (setting [9]), the “HAM-D, Total score: mean change from baseline to endpoint” value is on record as −7.4 and the “HAM-D, Vegetative Subscale: mean change from baseline to endpoint” value is reported as −3.2. In data set [5], the “change in muscle mass as expressed by FFMI” value is given as 1.1 (0.9) kg/meter^2 and the “change in percent body fat” value was −2.8 (1.7) %. Further, in data set [6], the “increase in body weight” value is given as 4%.
